This passage reports EC50, IC50 and outcome results from PubChem BioAssay AID179 (DTP/NCI, 2004).

Active and inactive are the calls of the source.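 The calls were made as follows: active = compounds giving half or more protection of infected cells from virus-caused growth loss, again on retest; inactive = the rest.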 Where a SMILES comes first, the peptide text is derived from it. [ ]: non-standard residue; d: D form. The star is where a group is joined. ξ: configuration not given here. NMeN = CN[C@@H](CC(N)=O)C(=O)O; NMeV = CN[C@H](C(=O)O)C(C)C; ξNMeV = CNC(C(=O)O)C(C)C; Boc = CC(C)(C)OC(=O)*; ξNMeA = CNC(C)C(=O)O; OBn = c1ccc(CO*)cc1

The test system of this test is CEM cells HIV-1 protection, formazan growth assay. Kind of test: NCI AIDS Antiviral Assay. Particulars: for IC50: measured here: growth of uninfected CEM cells. In outline: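 Protection of CEM cells against HIV-1 was scored from cell growth (soluble formazan) across five concentrations, with parallel uninfected cells. Lack of protection may reflect toxicity.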

The EC50 is the concentration giving half of the maximal effect. A word on the IC50: it is the point on the concentration scale where inhibition reaches its midpoint. The low end stands for greater potency in that assay, the high end for weaker potency in that assay. `CCCC/C=C/C1Cc2ccccc2CN1S(=O)(=O)c1ccc(C)cc1` (stereo unspecified): the EC50 was more than 25.1 µM and the IC50 came out at 5.25 µM. Take `CCOC(=O)n1[nH][nH]c2c(c(=O)n(C)c(=O)n2C)n1C(=O)OCC`: the EC50 is more than 200 µM and the concentration for half-maximal inhibition (IC50) was more than 200 µM. As for `CO/C(=N\N=C(/c1ccccc1)C(F)(F)F)c1ccncc1`, the EC50 was more than 200 µM and the concentration for half-maximal inhibition (IC50) amounted to 27.5 µM. With `C=C1CC2[C@H](C)C(=O)CCC2(C)C2=C1C1CCC(C(C)CCC(=C)C(C)C(=O)O)C1(C)CC2=O` (stereo partly specified), the EC50 is more than 200 µM and the IC50 was 66.1 µM. For `Cc1nc2ccncc2[nH]1`, in that order: more than 269 µM and 191 µM. For `O=C(OCc1ccccc1)N(Cc1ccccc1)S(=O)(=O)c1ccccc1`, in that order: more than 200 µM and more than 200 µM. In the case of `NC/C(=C\C(=O)O)c1ccc(Cl)cc1`, the outcome was inactive. For `CC(C)c1ccc(/C=C2\C=Cc3ccccc32)cc1`, the EC50 is more than 40.7 µM and the IC50 is more than 40.7 µM. Consider `CC(C)(C)c1ccc(C2(Br)C(=O)NC(=O)C2=O)cc1` (stereo unspecified), for which the EC50 was more than 200 µM and the half-maximal inhibitory concentration (IC50) is more than 200 µM. In the case of `COc1cc(SSc2cc(OC)cc([N+](=O)[O-])c2N)c(N)c([N+](=O)[O-])c1`, the EC50 was 4.47 µM and the IC50 worked out at 15.5 µM. For the compound `O=C1OC(c2ccccc2)(c2ccccc2)c2ccsc21`, the EC50 is more than 200 µM and the IC50 came to 69.2 µM. For the compound `NC(N)=NS(=O)(=O)c1ccc(-n2sc3ccccc3c2=O)cc1`, the EC50 is 4.37 µM and the IC50 was found to be 19.1 µM. With `COC(=O)C(NC(=O)CNC(=O)CSc1nnc(COc2ccc(Cl)cc2)n1-c1ccccc1)C(C)C` (stereo unspecified), the EC50 was more than 200 µM and the IC50 was found to be 3.63 µM. As to `CCOC(=O)Cc1csc(N/N=c2/sc(C=Nc3ccccc3)c(O)n2CC)n1`, the EC50 is more than 200 µM and the 50% inhibitory concentration (IC50) was more than 200 µM. As to `CC1(C)CC(=O)c2c(nc(SSc3nc4c(c(-c5ccccc5)c3C#N)C(=O)CC(C)(C)C4)c(C#N)c2-c2ccccc2)C1`, the EC50 is more than 200 µM and the IC50 was determined as 89.1 µM. Consider `Clc1cccc2nn3ccnc3n12`, for which the EC50 is more than 955 µM and the IC50 is 490 µM. As to `CCCc1cc(=O)oc2c3c(c4c(c12)OC(C)(C)C=C4)O[C@@H](C)[C@H](C)[C@H]3O`, the EC50 is more than 51.3 µM and the IC50 turned out to be 17 µM. For the compound `O=C1CCCC1CN1CCCC1` (stereo unspecified), the outcome was inactive. Take `CCOC(=O)c1c(C)nc(C)c(C(=O)OCC)c1-c1ccc(N(C)C)cc1`: the EC50 was more than 200 µM and the IC50 was determined as 53.7 µM. For `CC(=O)OC1OC(=O)C(C)(C(C)=O)C1C` (stereo unspecified), the result was inactive.

As to `CN(NC(=O)/C(=C/C=C/c1ccccc1)NC(=O)c1ccccc1)c1cnn(-c2ccccc2)c(=O)c1Cl`, the EC50 is more than 200 µM and the IC50 was found to be 3.24 µM. In the case of `O=C(Cn1cc(-c2ccccc2)nn1)NC1CCCCC1`, the EC50 is more than 200 µM and the IC50 was more than 200 µM. Take `COC(=O)[C@@]12CCCC(=O)[C@@H]1[C@H]1CCCC[C@H]12`: the EC50 was more than 200 µM and the IC50 stood at 110 µM.

Consider `COc1cccc(/C=C/C(=O)C(C)(C)C)c1`, for which the EC50 is more than 24 µM and the IC50 was more than 24 µM. Take `COC(=O)C1=C(C(=O)OC)C2(C)Nc3ccccc3C2=C(c2ccccc2)C1` (stereo unspecified): the EC50 is more than 19.1 µM and the IC50 was more than 19.1 µM. `CC1=CC(C)(C)N=C2SC(c3ccc(Cl)cc3)=NN12`: the EC50 was more than 24.5 µM and the IC50 came to 20 µM. Turning to `CCCCCCCCCC(=O)CC(=O)c1c(O)cc(O)cc1O`, the EC50 is more than 200 µM and the IC50 was found to be 26.3 µM. Turning to `CC1=C(C(=O)OC2CC3CCC2(C)C3(C)C)C2Nc3ccccc3N(C)C2O1` (stereo unspecified), the EC50 was more than 200 µM and the IC50 turned out to be 6.46 µM.

As to `C[C@@]1(C(=O)O)CCC[C@@]2(C)C1[C@H](OC(=O)c1ccccc1)CC1CC3CC12CC[C@@]3(C)O` (stereo partly specified), the EC50 is more than 282 µM and the IC50 came out at 58.9 µM. As for `[N-]=[N+]=C1C(=O)C2CC3CC(C2)CC1C3`, the EC50 is more than 191 µM and the IC50 was more than 191 µM. Take `N#CCCN(CCC#N)c1ccc(/C=C2\CC(O)(c3ccccc3)NC2=O)cc1` (stereo unspecified): the EC50 is more than 7.08 µM and the IC50 is more than 7.08 µM.

With `CCCCC(/C=C\COC1CCCCO1)=C/C(=O)OCC` (stereo unspecified), the EC50 was more than 126 µM and the IC50 is 77.6 µM. For `COc1ccc(C2CC(=O)c3ccccc3O2)cc1` (stereo unspecified), in that order: more than 200 µM and 97.7 µM.

For the compound `NS(=O)(=O)c1ccc(NC(=O)Cc2nc3ccccc3s2)cc1`, the EC50 was more than 195 µM and the IC50 was determined as 14.1 µM.

With `O=c1[nH]c(F)nc2c1ncn2C1OC(CO)C(O)C1O` (stereo unspecified), the EC50 was more than 200 µM and the IC50 is more than 200 µM.

Regarding `CO/C(=N/N1CC1C(F)(F)F)c1ccncc1` (stereo unspecified), the outcome was inactive.

In the case of `COc1ccc(N2C(=O)CC(=O)N(C(=O)COc3ccc(OCC(=O)N4C(=O)CC(=O)N(c5ccc(OC)cc5)C4=S)cc3)C2=S)cc1`, the EC50 is more than 200 µM and the IC50 amounted to 50.1 µM. `COc1ccc(-c2c(-c3ccc(OC)cc3)n3c(=O)n(C)c(=O)n23)cc1`: the EC50 is more than 200 µM and the IC50 was 79.4 µM.

As for `Cc1cccc(C)c1NC(=O)C(=O)C1C(=O)N(c2ccccc2)N=C1N` (stereo unspecified), the EC50 is more than 708 µM and the IC50 is more than 708 µM. For `CC(C)[Si](CC1=CCCCC12C(=O)N(COCC[Si](C)(C)C)c1ccccc12)(C(C)C)C(C)C` (stereo unspecified), the EC50 is more than 200 µM and the IC50 was more than 200 µM. On to `Cc1nc(C)c(N2CCN(S(=O)(=O)N(Cc3ccccc3)Cc3ccccc3)CC2)c(=O)[nH]1`, for which the EC50 was more than 200 µM and the IC50 is more than 200 µM.

Consider `COC(=O)C(C)N(C)C(=O)[C@H](CC(N)=O)N(C)C(=O)[C@@H]1CCCN1C(=O)[C@H](C(C)C)N(C)C(=O)C(C(C)C)N(C)C(=O)[C@@H](NC(=O)OC(C)(C)C)C(C)C` (stereo partly specified) (Boc-V[ξNMeV][NMeV]P[NMeN][ξNMeA]-OMe), for which the EC50 is more than 324 µM and the IC50 is more than 324 µM.

With `CSc1nc2c(c(=O)n1C)N=C(c1ccc(Cl)cc1)CC(c1ccccc1)N2` (stereo unspecified), the EC50 is more than 200 µM and the IC50 is 18.2 µM. `COC[C@@H](N=Cc1ccc(OC)cc1)C(C)C`: the EC50 is more than 200 µM and the IC50 is more than 200 µM. As for `N/N=C(\Cc1ccccc1)NN=C(N)N`, the EC50 is more than 457 µM and the IC50 came to 389 µM. Take `O=C1OCCC1(Cc1ccc(Cl)cc1)Cc1ccc(Cl)cc1`: the EC50 is more than 29.5 µM and the IC50 was more than 29.5 µM.

For the compound `O=C(/C=C/c1ccccc1)c1c2ccccc2cc2ccccc12`, the EC50 was more than 8.91 µM and the IC50 is more than 8.91 µM. Consider `CCOC1(NC(=O)N(C)C)C2CCCC21` (stereo unspecified), for which the EC50 is more than 200 µM and the IC50 is more than 200 µM. As to `N#CC(c1ccc(O)cc1)N1CCN(C(C#N)c2ccc(O)cc2)CC1` (stereo unspecified), the EC50 was more than 200 µM and the IC50 was more than 200 µM. For the compound `CCCCCCCCCCCCc1ccsc1-c1ccc(-c2ccc(-c3sccc3CCCCCCCCCCCC)s2)s1`, the EC50 was more than 25.1 µM and the concentration for half-maximal inhibition (IC50) is more than 25.1 µM. Consider `CC1=CC2C(O)(CC(CO)=CC3C4C(C)(C)C4(O)C(O)C(C)C32O)C1=O` (stereo unspecified), for which the result was inactive. In the case of `N/N=C1\C(=O)N(c2ccc(Cl)c(Cl)c2)C(=O)C1C(=O)Nc1ccc(Cl)c(Cl)c1` (stereo unspecified), the EC50 is more than 1.2 µM and the IC50 was more than 1.2 µM. As for `O=C1Nc2ccccc2NC1C1OC(c2ccccc2)=CC1=O` (stereo unspecified), the EC50 was more than 200 µM and the IC50 turned out to be 97.7 µM.

Consider `CN(C)c1c(C2OC(CO)C(O)C2O)c(=O)c1=O` (stereo unspecified), for which the EC50 is more than 200 µM and the IC50 is more than 200 µM. Take `O=S1(=O)c2ccccc2N(O)C2=NCCN21`: the EC50 is more than 550 µM and the IC50 came out at 91.2 µM. The corresponding values for `Cc1ccc(NC(=O)C(=O)C(C(=O)c2ccc3ccccc3c2)C2OC(=O)c3ccccc32)cc1C` (stereo unspecified) are more than 53.7 µM and 25.7 µM. Consider `NC(CCC(=O)OCc1ccccc1)C(=O)NC(CCC(=O)OCc1ccccc1)C(=O)O` (stereo unspecified) (H-Glu(OBn)-Glu(OBn)-OH; configuration not given here), for which the EC50 was more than 1000 µM and the half-maximal inhibitory concentration (IC50) is more than 1000 µM. For `NC(N)=NS(=O)(=O)c1ccc(Nc2c3ccccc3nc3c(C(=O)Nc4ccc(S(N)(=O)=O)cc4)cccc23)cc1`, the EC50 was 8.32 µM and the IC50 turned out to be 31.6 µM. On to `CCCCCCCCCCCCCCCCCCN(C)C`, for which the EC50 is more than 200 µM and the IC50 was found to be 97.7 µM. Consider `CC(C)NCC(O)c1ccc(OCc2ccccc2)c(OCc2ccccc2)c1-c1ccccc1` (stereo unspecified), for which the EC50 was more than 200 µM and the half-inhibitory concentration (IC50) was determined as 3.09 µM.

Regarding `CC(=O)c1cccn1/C=C(\OC(=O)OC(C)(C)C)c1ccc[nH]1`, the EC50 is 155 µM and the IC50 turned out to be 162 µM. Turning to `C1=CC2C(C3CN(c4ccccc4)N=C13)C1C3C4C=CC21C=CC43` (stereo unspecified), the EC50 was more than 200 µM and the IC50 was more than 200 µM. Take `COc1ccccc1C=C1C(=O)OC(C)(C)OC1=O`: the result was inactive. `O=C(CCCCCCCCc1ccc(O)cc1)c1c(O)cccc1O`: the outcome was inactive.

With `N[C@@H](Cc1ccccc1)C(=O)N1CCC[C@@H]1P(=O)(Oc1ccccc1)Oc1ccccc1`, the result was inactive. For the compound `COc1ccc(-c2cc3ccccc3oc2=O)cc1OC`, the EC50 is more than 200 µM and the IC50 was found to be 41.7 µM. On to `Cc1cc(C)nc(Nc2nc3ccc([N+](=O)[O-])cc3[nH]2)n1`, for which the EC50 was more than 871 µM and the half-inhibitory concentration (IC50) is 407 µM.

In the case of `COc1cc2c(cc1OCc1ccccc1)NC(=O)[C@@H]1CCCN1C2=O`, the EC50 was more than 200 µM and the IC50 is more than 200 µM. As for `CC(=C\c1ccccc1)/C=C(\C#N)C(N)=O`, the EC50 was more than 200 µM and the IC50 turned out to be 97.7 µM. Take `Nc1[nH]c(=S)nc2nc3c4ccccc4c4ccccc4c3nc12`: the EC50 is more than 200 µM and the IC50 was more than 200 µM. For `CS(=N)(=O)CCC(N)P(=O)(O)O` (stereo unspecified), the EC50 is more than 200 µM and the IC50 is more than 200 µM. In the case of `Brc1ccccc1C1SCc2nc3ncccc3n21` (stereo unspecified), the EC50 was more than 77.6 µM and the IC50 was more than 77.6 µM.
